{"source": "patent US20230235036A1", "about": "“ACVR1 (ALK2) RECEPTOR INHIBITION TO TREAT NEUROLOGICAL DISEASES” (The J. David Gladstone Institutes, a testamentary trust …, priority 2020, published 2023)", "key": {"NOD-MOG35-55 EAE mice": {"tested_on": "NOD-MOG35-55 EAE mice", "test": "Progressive NOD-MOG35-55 EAE, therapeutic treatment", "format": "in vivo, mouse"}, "[1]": {"tested_on": "NG2-CreER™:Rosa^tdTomato/+ MOG35-55-EAE mice", "conditions": "vs saline"}, "PLP-EAE": {"tested_on": "PLP-EAE", "test": "In vivo PLP-EAE"}, "Water solubility": {"test": "Water solubility", "format": "physicochemical"}, "primary rat OPCs": {"tested_on": "primary rat OPCs", "test": "OPC-X-screen: OPC differentiation to MBP+ OLs or GFAP+ astrocytes in presence of fibrinogen", "format": "cell-based", "conditions": "for OPC differentiation to mature MBP+ OLs under extrinsic inhibition by fibrinogen: myelin-promoting compound screen, fibrinogen 1.5 mg/ml, benztropine, clemastine, quetiapine, miconazole, (±)U-50488 1 μM, clobetasol 5 μM, XAV-939 0.1 μM; for OPC differentiation to mature MBP+ OLs under extrinsic inhibition by fibrinogen / cell-fate switch of OPCs to GFAP+ cells by fibrinogen: DMH1 1 μM; for cell-fate switch of OPCs to GFAP+ cells by fibrinogen: fibrinogen-treated OPCs, clemastine 1 μM"}, "[2]": {"tested_on": "BMP signaling (P-SMAD1/5, ID2) in primary rat OPCs", "test": "Immunoblot of phospho-SMAD1/5 and ID2 in fibrinogen-treated OPCs", "format": "cell-based", "procedure": "Cells or tissue were lysed in RIPA lysis buffer (Thermo Fisher Scientific) supplemented with protease/phosphatase inhibitor cocktails (Calbiochem) and lysates were cleared by centrifuging at 13,000×g for 15 minutes at 4° C. Equal amounts of protein were loaded in […] bis-tris gels (Thermo Fisher Scientific) and analyzed by western blotting. Bands were visualized with HRP-conjugated secondary antibodies (Cell Signaling Technology). Densitometry was performed using ImageJ Software (NIH) with values for each band normalized to GAPDH loading controls from the same membrane. Primary antibodies were: Id2 (1:1000, rabbit monoclonal, #M213, CalBioreagents); phospho-Smad1/5 (1:1000, rabbit monoclonal, #9516, Cell Signaling Technology); GAPDH (1:1000, rabbit monoclonal, #2118, Cell Signaling Technology)"}, "[3]": {"conditions": "in vivo 2P imaging at chronic EAE"}, "[4]": {"conditions": "LDN-212854 dose response 5 μM to 2 nM, fibrinogen 2.5 mg/ml, 3 days"}, "[5]": {"conditions": "fibrinogen alone vs control, OPC-X assay"}}, "note": "“Also recorded” adds a separate entry of the source. Where two headings read alike, the source gives them in different places.", "data": [{"molecule": "c1cc(-c2cnn3cc(-c4ccc(N5CCNCC5)cc4)cnc23)c2cccnc2c1", "note": "[LDN-212854]", "values": [{"measurement": "demyelination in spinal cord", "setting": "NOD-MOG35-55 EAE mice; 30 days treatment, vs saline", "value": "reduced"}, {"measurement": "fibrinogen deposition in spinal cord", "setting": "NOD-MOG35-55 EAE mice; 30 days treatment, vs saline", "value": "reduced"}, {"measurement": "clinical scores", "setting": "NOD-MOG35-55 EAE mice; treated for 30 days, vs saline", "value": "significantly improved"}, {"measurement": "group mean of maximum clinical scores", "setting": "NOD-MOG35-55 EAE mice; treated for 30 days, maximum scores from the last 20 days of treatment, five-point scale", "value": 1.75}, {"measurement": "clinical scores", "setting": "[1]; 6 mg/kg twice daily for 14 days starting at peak disease", "value": "significantly improved"}, {"measurement": "ID2 expression in NG2 cells in the EAE white matter", "setting": "[1]; 14 day treatment", "value": "decreased"}, {"measurement": "demyelination in spinal cord", "setting": "[1]; 14 days treatment", "value": "reduced"}, {"measurement": "fibrinogen deposition in spinal cord", "setting": "[1]; 14 days treatment", "value": "reduced"}, {"measurement": "myelin damage (myelin circularity)", "setting": "[1]; [3]", "value": "markedly reduced"}, {"measurement": "perivascular NG2 clusters", "setting": "[1]; [3]", "value": "markedly reduced"}, {"measurement": "clinical scores", "setting": "PLP-EAE", "value": "improved"}, {"measurement": "spinal cord Id2 protein levels", "setting": "PLP-EAE", "value": "reduced"}, {"measurement": "water solubility", "setting": "Water solubility", "value": "water soluble; also recorded: water-soluble"}, {"measurement": "formation of GFAP+ astrocytes from fibrinogen-treated OPCs", "setting": "primary rat OPCs; [4]", "value": "blocked the formation of GFAP+ astrocytes"}, {"measurement": "mature OL (MBP+) differentiation from fibrinogen-treated OPCs", "setting": "primary rat OPCs; [4]", "value": "enhanced formation of mature oligodendrocytes; also recorded: restored mature OL differentiation"}]}, {"molecule": "Clc1ccc(COC(Cn2ccnc2)c2ccc(Cl)cc2Cl)c(Cl)c1", "note": "(stereo not drawn) [miconazole]", "values": [{"measurement": "OPC differentiation to mature MBP+ OLs under extrinsic inhibition by fibrinogen", "setting": "primary rat OPCs; 3 days", "value": "did not overcome extrinsic inhibition of OPC differentiation by fibrinogen"}]}, {"molecule": "Oc1nc(-c2ccc(C(F)(F)F)cc2)nc2c1CSCC2", "note": "[XAV-939]", "values": [{"measurement": "OPC differentiation to mature MBP+ OLs under extrinsic inhibition by fibrinogen", "setting": "primary rat OPCs; 3 days", "value": "did not overcome extrinsic inhibition of OPC differentiation by fibrinogen"}]}, {"molecule": "CC(C)Oc1ccc(-c2cnc3c(-c4ccnc5ccccc45)cnn3c2)cc1", "note": "[DMH1]", "values": [{"measurement": "fibrinogen-induced expression of BMP target protein ID2", "setting": "[2]", "value": "blocked"}, {"measurement": "fibrinogen-induced phosphorylation of SMAD1/5", "setting": "[2]", "value": "blocked"}, {"measurement": "water solubility", "setting": "Water solubility", "value": "not water-soluble"}, {"measurement": "cell-fate switch of OPCs to GFAP+ cells by fibrinogen", "setting": "primary rat OPCs; 3 days", "value": "abolished"}, {"measurement": "OPC differentiation to mature MBP+ OLs under extrinsic inhibition by fibrinogen", "setting": "primary rat OPCs; 3 days", "value": "restored OPC differentiation to mature OLs to control levels"}]}, {"molecule": "OCCOCCN1CCN(C2=Nc3ccccc3Sc3ccccc32)CC1", "note": "[quetiapine]", "values": [{"measurement": "OPC differentiation to mature MBP+ OLs under extrinsic inhibition by fibrinogen", "setting": "primary rat OPCs; 3 days", "value": "did not overcome extrinsic inhibition of OPC differentiation by fibrinogen"}]}, {"molecule": "fibrinogen", "values": [{"measurement": "decrease of MBP+ mature OLs as compared to controls", "setting": "primary rat OPCs; [5]", "value": "~60", "unit": "%"}, {"measurement": "increase of GFAP+ astrocyte-like cells as compared to controls", "setting": "primary rat OPCs; [5]", "value": "~60", "unit": "%"}]}, {"molecule": "CN1[C@@H]2CC[C@H]1C[C@@H](OC(c1ccccc1)c1ccccc1)C2", "note": "[benztropine]", "values": [{"measurement": "OPC differentiation to mature MBP+ OLs under extrinsic inhibition by fibrinogen", "setting": "primary rat OPCs; 3 days", "value": "did not overcome extrinsic inhibition of OPC differentiation by fibrinogen"}]}, {"molecule": "CN1CCC[C@@H]1CCO[C@](C)(c1ccccc1)c1ccc(Cl)cc1", "note": "[clemastine]", "values": [{"measurement": "fibrinogen-induced expression of BMP target protein ID2", "setting": "[2]", "value": "did not block"}, {"measurement": "fibrinogen-induced phosphorylation of SMAD1/5", "setting": "[2]", "value": "did not inhibit"}, {"measurement": "fibrinogen-induced phosphorylation of SMAD1/5", "setting": "[2]; listed as Clemastine", "value": "did not block"}, {"measurement": "OPC differentiation to mature OLs in the presence of fibrinogen", "setting": "primary rat OPCs; clemastine dose-response, fibrinogen 2.5 mg/ml, differentiation media without T3 or growth factors, 3 days", "value": "did not enhance"}, {"measurement": "cell-fate switch of OPCs to GFAP+ cells by fibrinogen", "setting": "primary rat OPCs; 3 days", "value": "did not inhibit SMAD1/5 phosphorylation, a key pathway downstream of BMP receptor activation, or rescue"}, {"measurement": "number of MBP+ cells in control conditions", "setting": "primary rat OPCs; no fibrinogen, differentiation media without T3 or growth factors, 3 days", "value": "increased"}]}, {"molecule": "C[C@H]1C[C@H]2[C@@H]3CCC4=CC(=O)C=C[C@]4(C)[C@@]3(F)[C@@H](O)C[C@]2(C)[C@@]1(O)C(=O)CCl", "note": "[clobetasol]", "values": [{"measurement": "OPC differentiation to mature MBP+ OLs under extrinsic inhibition by fibrinogen", "setting": "primary rat OPCs; 3 days", "value": "did not overcome extrinsic inhibition of OPC differentiation by fibrinogen"}]}]}
